Laboratory results from patent US20260274836A1, “NOVEL HEPATOSELECTIVE POLYADENYLATING POLYMERASES INHIBITORS AND THEIR METHOD OF USE” (Baruch S. Blumberg Institute, priority 2022, published 2026).
“And” between values parts separate entries of the source, which are not always exact repeats. Identical values can stand only once.

What was measured:
OATP1B1 = target: T1, OATP1B1 (Homo sapiens, UniProt Q9Y6L6); experiment: OATP1B1 transporter substrate uptake in OATP1B1-HEK293 cells; assay type: in vitro ADME
T1 construct: expressed in transfected cells; host or cells: HEK293
T1 sequence (Q9Y6L6 1-691): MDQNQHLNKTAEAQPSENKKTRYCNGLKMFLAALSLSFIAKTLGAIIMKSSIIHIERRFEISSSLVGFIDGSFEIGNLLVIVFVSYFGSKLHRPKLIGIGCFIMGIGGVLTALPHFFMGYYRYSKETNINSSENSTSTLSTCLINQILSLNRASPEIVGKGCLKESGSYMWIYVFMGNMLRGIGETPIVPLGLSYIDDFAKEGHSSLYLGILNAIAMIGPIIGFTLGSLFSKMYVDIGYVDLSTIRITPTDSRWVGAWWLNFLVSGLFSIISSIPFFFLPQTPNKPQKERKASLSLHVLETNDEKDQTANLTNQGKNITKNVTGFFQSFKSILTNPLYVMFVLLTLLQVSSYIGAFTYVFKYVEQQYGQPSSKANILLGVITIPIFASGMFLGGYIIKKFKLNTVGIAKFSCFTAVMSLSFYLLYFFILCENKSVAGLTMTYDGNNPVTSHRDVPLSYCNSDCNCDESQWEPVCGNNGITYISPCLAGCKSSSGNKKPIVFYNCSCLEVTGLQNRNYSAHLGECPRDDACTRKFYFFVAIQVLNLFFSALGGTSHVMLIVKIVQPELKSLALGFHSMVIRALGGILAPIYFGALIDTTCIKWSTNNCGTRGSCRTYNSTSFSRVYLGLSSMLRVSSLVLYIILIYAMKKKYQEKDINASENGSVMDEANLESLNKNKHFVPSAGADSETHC
Protocol: Protocol for identification of compounds that are substrates of transporters OATPIBI and OATPIB3. Transfected HEK293 and vector control HEK293 cells were cultured in 24-well poly-D-lysine or collagen-coated tissue culture plates ([…]) for 2 and 10 minutes respectively in transport buffer (HBSSg, pH 7.4, pre-warmed to 37° C.). At a defined time point, the uptake experiments were stopped by removing dosing solution followed by two washes of ice-cold HBSSg buffer. The cells were lysed for 2 minutes with 75% ACN containing an appropriate internal standard (when available). Lysis buffer were chilled to −20° C., and the plate was kept on ice during lysis. The cell lysate was transferred into a 96-well plate for sample analysis with LC-MS/MS analysis to determine concentration of test compound in cell lysate. The uptake of test compounds was normalized by total cell protein using the BCA Protein Assay Kit following the manufacturer's protocol. The inhibitor Rifamycin SV was used to block OATP1B1 and OATP1B3 transporter activity in order to determine uptake ratios.

[1] = Pharmacokinetics after intravenous (IV) administration, plasma; assay type: in vivo, CD1 mice; set-up: AUClast/D: unit not given here; details: 3 mg/kg IV; for Concentration (ng/mL): plasma
Protocol: Protocol for pharmacokinetic and tissue distribution studies. The pharmacokinetics of the compounds was studied in CD1 mice after intravenous (IV) and oral gavage (PO) administration. Mouse PK studies was conducted at 3 mg/kg (IV) and 8 mg/kg (PO). Plasma samples obtained from dosed animals, at ten time points, including 5, 15 and 30 minutes and 1, 1.5, 2, 4, 6, 8 and 24 hr post-dose for processing to plasma, were prepared for analysis by means of a single step protein precipitation technique, by adding 200 μL of acetonitrile containing an IS mixture (labetalol, imipramine and diclofenac) to 50 μL aliquots of individual subject samples. Samples were mixed by vortex for homogeneity and then subjected to centrifugation at 4000 rpm for 10 min. The supernatant (200 μL) was collected and injected into the LC-MS/MS for analysis. Pharmacokinetic parameters will be calculated using established non-compartmental methods. The liver distribution of the compounds was studied in the PO group and liver tissues were collected at each time point after PO administration. Accurately weighed whole liver tissues were collected in a 50 mL tube, and 3 volumes per weight of water will be added. Tissue samples were homogenized and 50 μL of the homogenates will be processed along with plasma samples as described above.

Compound: COc1cc2c(cc1OCCCCCCC(=O)O)C[C@@H](C(C)C)n1cc(C(=O)O)c(=O)cc1-2 [Example 6, (S)-9-((6-carboxyhexyl)oxy)-6-isopropyl-10-methoxy-2-oxo-6,7-dihydro-2H-pyrido[2,1-a]isoquinoline-3-carboxylic acid]
- Uptake Ratio (−/+Inhibitor) (OATP1B1; OATP1B1-HEK293 cells, test concentration 1 μM, inhibitor Rifamycin SV): 11.17
- Uptake Ratio (Transporter(−Inhibitor)/Mock(−Inhibitor)) (OATP1B1; OATP1B1-HEK293 vs mock HEK293, test concentration 1 μM): 18.99
- AUC—% Extrap —obs ([1]; individual mice): 1.59% and 1.03% and 0.662%
- Cl_obs ([1]; individual mice): 187 mL/min/kg and 166 mL/min/kg and 242 mL/min/kg
- AUClast/D ([1]; mean): 85.1
- AUC—% Extrap —obs ([1]; mean): 1.09%
- C0 ([1]; mean): 2568 ng/mL
- Cl_obs ([1]; mean): 198 mL/min/kg
- Concentration (ng/mL) ([1]; 4 h, individual mice): BLOQ
- Concentration (ng/mL) ([1]; 8 h, individual mice): BLOQ
- Concentration (ng/mL) ([1]; 24 h, individual mice): BLOQ
